Test results taken from patent US9522888B2, “Substituted bicyclic compounds” (BRISTOL-MYERS SQUIBB COMPANY, priority 2014, dated 2016).
Like-named read-outs stand apart in the source and are kept apart here.

Experiments:
human S1P1 = human S1P1 (Homo sapiens (Human), UniProt P21453); experiment: S1P1 binding assay (33P-S1P radioligand competition, CHO cell membranes)
Method: Membranes were prepared from CHO cells expressing human S1P1. Cells pellets (1×10^9 cells/pellet) were suspended in buffer containing 20 mM HEPES (4-(2-hydroxyethyl)-1-piperazineethanesulfonic acid), pH 7.5, 50 mM NaCl, 2 mM EDTA (Ethylenediaminetetraacetic acid) and Protease Inhibitor cocktail (Roche), and disrupted on ice using the Polytron homogenizer. The homogenate was centrifuged at 20,000 rpm (48,000 g) and the supernatant was discarded. The membrane pellets were resuspended in buffer containing 50 mM HEPES, pH 7.5, 100 mM NaCl, 1 mM MgCl2, 2 mM EDTA and stored in aliquots at −80° C. after protein concentration determination.

[1] = target: S1P3 (membranes prepared from EDG3-Gal5-bla HEK293T cells) (Homo sapiens (Human), UniProt Q99500); experiment: Receptor [35S] GTPγS binding assay (S1P3 GTPγS); format: biochemical
S1P3 (membranes prepared from EDG3-Gal5-bla HEK293T cells), sequence (Q99500 whole entry): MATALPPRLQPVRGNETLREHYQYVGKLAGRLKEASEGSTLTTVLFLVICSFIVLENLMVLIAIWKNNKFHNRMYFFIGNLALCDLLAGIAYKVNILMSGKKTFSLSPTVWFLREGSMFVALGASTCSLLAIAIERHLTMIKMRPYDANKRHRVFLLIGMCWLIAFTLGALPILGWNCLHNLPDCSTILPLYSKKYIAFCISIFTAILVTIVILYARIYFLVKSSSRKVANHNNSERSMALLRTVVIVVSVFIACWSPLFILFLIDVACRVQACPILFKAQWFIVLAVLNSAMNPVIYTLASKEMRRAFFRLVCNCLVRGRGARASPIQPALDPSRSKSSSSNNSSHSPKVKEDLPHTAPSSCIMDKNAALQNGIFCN
Method: (§1) Receptor [^35S] GTPγS Binding Assays: (S1P1 GTPγS/S1P3 GTPγS)
(§2) Compounds were loaded in a 384 Falcon v-bottom plate (0.5 μl/well in a 11 point, 3-fold dilution). Membranes prepared from S1P1/CHO cells or EDG3-Gal5-bla HEK293T cells (EDG3 equivalent S1P3) were added to the compound plate (40 μl/well, final protein 3 μg/well) with MULTIDROP®. [^35S] GTP (1250 Ci/mmol, Perkin Elmer) was diluted in assay buffer: 20 mM HEPES, pH7.5, 10 mM MgCl2, 150 mM NaCl, 1 mM EGTA (ethylene glycol tetraacetic acid), 1 mM DTT (Dithiothreitol), 10 μM GDP, 0.1% fatty acid free BSA, and 10 μg/ml Saponin to 0.4 nM. 40 μl of the [^35S] GTP solution was added to the compound plate with a final concentration of 0.2 nM. The reaction was kept at room temperature for 45 min. At the end of incubation, all the mixtures in the compound plate were transferred to Millipore 384-well FB filter plates via the VELOCITY11® Vprep liquid handler. The filter plate was washed with water 4 times by using the manifold Embla plate washer and dried at 60° C. for 45 min. MicroScint 20 scintillation fluid (30 μl) was added to each well for counting on the Packard TOPCOUNT®.
A smaller value for GTPγS S1P1 EC50 value indicated greater activity for the compound in the GTPγS S1P1 binding assay. A larger value for the GTPγS S1P3 EC50 value indicated less activity in the GTPγS S1P3 binding assay. […] Thus the compounds of the present invention may be used in treating, preventing, or curing various S1P1 receptor-related conditions while reducing or minimizing the side effects due to S1P3 activity. The selectivity of the compounds of the present invention indicate their potential use in treating, preventing, or curing autoimmune and inflammatory diseases such as multiple sclerosis, rheumatoid arthritis, inflammatory bowel disease, lupus, psoriasis, or vascular diseases, while reducing or minimizing possible side effects due to S1P3 activity. Other potential uses of the compounds of the present invention include minimizing or reducing rejection of transplanted organs, while reducing or minimizing side effects due to S1P3 activity.

[2] = target: S1P1 (membranes prepared from S1P1/CHO cells) (Homo sapiens (Human), UniProt P21453); experiment: Receptor [35S] GTPγS binding assay (S1P1 GTPγS); format: biochemical; conditions: for activity as an agonist of S1P1: GTPγS S1P1 binding assay, result in words
S1P1 (membranes prepared from S1P1/CHO cells), sequence (P21453 whole entry): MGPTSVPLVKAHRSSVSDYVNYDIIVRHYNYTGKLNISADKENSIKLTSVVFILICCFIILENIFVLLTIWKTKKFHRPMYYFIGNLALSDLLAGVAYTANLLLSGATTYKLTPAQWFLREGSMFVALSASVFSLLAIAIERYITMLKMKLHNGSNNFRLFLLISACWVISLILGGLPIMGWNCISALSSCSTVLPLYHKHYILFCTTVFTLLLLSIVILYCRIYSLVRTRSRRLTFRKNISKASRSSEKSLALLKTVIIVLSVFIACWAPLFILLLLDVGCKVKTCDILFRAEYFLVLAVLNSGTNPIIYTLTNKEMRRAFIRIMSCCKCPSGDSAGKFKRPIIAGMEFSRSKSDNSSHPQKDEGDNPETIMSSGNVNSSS
Method: as §1
as §2, with “TOPCOUNT®. […]” for “TOPCOUNT®.”

hS1P1/CHO cells = hS1P1/CHO cells (Homo sapiens (Human), UniProt P21453); experiment: hS1P1 ERK phosphorylation (S1P1 pERK); format: cell-based; conditions: phosphate examples
hS1P1/CHO cells, sequence (P21453 whole entry): as above
Method: hS1P1 ERK Phosphorylation (S1P1 pERK)
hS1P1/CHO cells were plated into BD Amine 384-well plates the day before the assay. On the day of the assay, growth medium was removed and replaced with serum-free medium (Ham's F-12 Invitrogen) and incubated for 2 hours. Test compounds pre-diluted in HBSS (Gibco)/20 mM HEPES (Gibco) were transferred to the cell plates and incubated for 7 minutes at 37° C. Cells were lysed in lysis buffer (Perkin Elmer) and phospho-ERK was measured using the SureFire pERK kit (Perkin Elmer) as described by the manufacturer. Data was plotted as percentage activation of the test compound relative to the efficacy of 10 μM S1P.

[3] = phosphate examples, read-out: S1P1 Binding
[4] = phosphate examples, read-out: S1P3 GTPγS
[5] = phosphate examples, read-out: S1P1 GTPγS
[6] = 33P-S1P competition, membranes of CHO cells expressing human S1P1, read-out: S1P1 Binding IC50
[7] = [35S]GTPγS, S1P1/CHO cell membranes, read-out: GTPγS S1P1 EC50
[8] = [35S]GTPγS, EDG3-Gal5-bla HEK293T cell membranes, read-out: GTPγS S1P3 EC50

human S1P1, sequence (P21453 whole entry): as above

Row | Structure (SMILES) | IC50 (human S1P1; [3]) [nM] | EC50 [1, 4] [nM] | EC50 [2, 5] [nM] | EC50 [1, 8] [nM] | further results
1 | COCCCCCC1CCc2cc([C@H]3CC[C@](N)(COP(=O)(O)O)C3)ccc2C1 (single isomer, unassigned) [Example 690] |  |  |  | > 625 | IC50 (human S1P1; [6]): 3 nM; EC50 [2, 7]: 21.4 nM
2 | COc1cccc(OCC2CCc3cc([C@@H]4CC[C@](N)(COP(=O)(O)O)C4)ccc3C2)c1 (single isomer, unassigned) [Example 701] |  |  |  | > 1250 | 
3 | COc1ccccc1CC[C@@H]1CCc2cc([C@@H]3CC[C@](N)(COP(=O)(O)O)C3)ccc2C1 [Example 699] |  |  |  | > 625 | 
4 | CCCCCCC1CCc2cc([C@H]3CC[C@](N)(COP(=O)(O)O)C3)ccc2O1 (some centres unmarked) [compound 419] |  | > 625 |  |  | EC50 (hS1P1/CHO cells): 10 to 100 nM
5 | COc1cccc(CCC2CCc3cc([C@H]4CC[C@](N)(COP(=O)(O)O)C4)ccc3C2)c1 (single isomer, unassigned) [Example 693] |  |  |  | > 4160 | 
6 | COCCCCCC1CCc2cc([C@@H]3CC[C@](N)(COP(=O)(O)O)C3)ccc2C1 (single isomer, unassigned) [Example 692] |  |  |  | > 625 | IC50 (human S1P1; [6]): 2.3 nM
7 | COc1ccccc1CCC1CCc2cc(C3CC[C@](N)(COP(=O)(O)O)C3)ccc2C1 (single isomer, unassigned) [Example 698] |  |  |  | > 625 | 
8 | CCOCCCC1CCc2cc([C@H]3CC[C@](N)(COP(=O)(O)O)C3)ccc2C1 (single isomer, unassigned) [Example 696] |  |  |  | > 1000 | EC50 [2, 7]: 1.2 nM
9 | COCCCCCC1CCc2cc([C@H]3CC[C@](N)(COP(=O)(O)O)C3)ccc2C1 (single isomer, unassigned) [Example 689] |  |  |  | > 2000 | IC50 (human S1P1; [6]): 1.7 nM; activity as an agonist of S1P1 [2]: possessed activity as an agonist of S1P1; EC50 [2, 7]: 5.7 nM; selectivity over S1P3 ([1]; GTPγS S1P1 versus GTPγS S1P3, result in words): selective over S1P3; EC50 ([1]; membranes prepared from EDG3-Gal5-bla HEK293T cells, read-out: GTPγS S1P3 EC50): > 2000 nM
10 | COc1ccccc1CC[C@@H]1CCc2cc([C@H]3CC[C@](N)(COP(=O)(O)O)C3)ccc2C1 (single isomer, unassigned) [Example 697] |  |  |  | > 1000 | 
11 | COc1ccccc1CCC1CCc2cc([C@H]3CC[C@](N)(COP(=O)(O)O)C3)ccc2C1 (some centres unmarked) [Example 697] |  |  |  |  | activity as an agonist of S1P1 [2]: possessed activity as an agonist of S1P1
12 | CCOCCCC1CCc2cc([C@H]3CC[C@](N)(COP(=O)(O)O)C3)ccc2C1 (single isomer, unassigned) [Example 695] |  |  |  | > 625 | 
13 | CCCCCCN1CCc2cc([C@H]3CC[C@](N)(COP(=O)(O)O)C3)ccc2C1=O [compound 416] | 1000 to 10000 | > 625 |  |  | 
14 | COc1cccc(CCC2CCc3cc([C@H]4CC[C@](N)(COP(=O)(O)O)C4)ccc3C2)c1 (single isomer, unassigned) [Example 694] |  |  |  | > 1250 | EC50 [2, 7]: 38.6 nM
15 | COc1cccc(OCC2CCc3cc([C@@H]4CC[C@](N)(COP(=O)(O)O)C4)ccc3C2)c1 (single isomer, unassigned) [Example 702] |  |  |  | > 625 | 

Now from value to compound, other results behind:

Row | IC50 (human S1P1; [3]) [nM] | EC50 [1, 4] [nM] | EC50 [2, 5] [nM] | EC50 [1, 8] [nM] | Structure (SMILES) | further results
16 | 10 to 100 | > 625 |  |  | CCCCCCO[C@@H]1CCc2cc([C@@H]3CC[C@](N)(COP(=O)(O)O)C3)ccc2C1 [compound 435] | 
17 |  | > 625 | < 10 |  | CC(C)COCC[C@H]1CCc2cc([C@H]3CC[C@](N)(COP(=O)(O)O)C3)ccc2C1 [compound 543] | EC50 (hS1P1/CHO cells): < 10 nM
18 | 1000 to 10000 | > 625 | 100 to 1000 |  | N[C@]1(COP(=O)(O)O)CCC(c2ccc3c(c2)CN(CCCc2ccccc2)C3=O)C1 (some centres unmarked) [compound 614] | 
19 |  | > 625 | < 10 |  | CC(C)COCC[C@@H]1CCc2cc([C@H]3CC[C@](N)(COP(=O)(O)O)C3)ccc2C1 [compound 542] | EC50 (hS1P1/CHO cells): < 10 nM
20 | 100 to 1000 | > 625 | 100 to 1000 |  | CC1(C)c2cc([C@@H]3CC[C@](N)(COP(=O)(O)O)C3)ccc2C(=O)N1CCCc1ccccc1 [compound 615] | 
21 | 100 to 1000 | > 625 |  |  | CCCCCC(=O)N1CCc2cc([C@H]3CC[C@@](N)(COP(=O)(O)O)C3)ccc2C1 [compound 617] | 
22 | < 10 | > 625 | < 10 |  | C=CCCOCCO[C@H]1CCc2cc([C@@H]3CC[C@@](N)(COP(=O)(O)O)C3)ccc2C1 [compound 584] | 
23 |  | > 100 | < 10 |  | N[C@@]1(COP(=O)(O)O)CC[C@@H](c2ccc3c(c2)CC[C@@H](OCCOc2ccccc2)C3)C1 [compound 583] | EC50 (hS1P1/CHO cells): < 10 nM
24 |  | > 625 | 10 to 100 |  | COc1ccc(C[C@@H]2CCc3cc([C@H]4CC[C@](N)(COP(=O)(O)O)C4)ccc3C2)cc1F [compound 554] | EC50 (hS1P1/CHO cells): 10 to 100 nM
25 | 1000 to 10000 | > 625 | 10 to 100 |  | CCCCCCC1CCc2nc([C@@H]3CC[C@@](N)(COP(=O)(O)O)C3)ccc2C1 (some centres unmarked) [compound 612] | 
26 | < 10 | > 625 | < 10 |  | N[C@@]1(COP(=O)(O)O)CC[C@@H](c2ccc3c(c2)CC[C@H](OCCOCc2ccccc2)C3)C1 [compound 581] | 
27 |  | > 625 | 10 to 100 |  | N[C@@]1(COP(=O)(O)O)CC[C@@H](c2ccc3c(c2)CC[C@H](OCCOC2CCCCC2)C3)C1 (single isomer, unassigned) [compound 585] | 
28 |  |  | < 10 |  | COc1ccc(F)c(OC[C@@H]2CCc3cc([C@H]4CC[C@](N)(COP(=O)(O)O)C4)ccc3C2)c1 [compound 486] | EC50 (hS1P1/CHO cells): 10 to 100 nM
29 | < 10 | > 625 | < 10 |  | CCCCCC(=O)OC1CCc2cc([C@H]3CC[C@](N)(COP(=O)(O)O)C3)ccc2C1 (some centres unmarked) [compound 623] | 
30 | < 10 | > 625 | < 10 |  | CCCCCC[C@H]1CCc2cc([C@H]3CC[C@](N)(COP(=O)(O)O)C3)c(C)cc2C1 [compound 622] | 
31 | 10 to 100 | > 625 | < 10 |  | CCCCCC[C@H]1CCc2cc([C@H]3CC[C@](N)(COP(=O)(O)O)C3)c(I)cc2C1 [compound 620] | 
32 | 10 to 100 | > 625 | 10 to 100 |  | CC(C)=CCOCCO[C@@H]1CCc2cc(C3CCC(N)(COP(=O)(O)O)C3)ccc2C1 (single isomer, unassigned) [compound 580] | 
33 | 100 to 1000 | > 625 | 100 to 1000 |  | CC(C)CO/N=C1/CCc2cc([C@H]3CC[C@](N)(COP(=O)(O)O)C3)ccc2C1 [compound 666] | 
